From patent publication EP0396405A2, “Cosmetic formulations employing esterified alkoxylated polyol carriers” (ARCO CHEMICAL TECHNOLOGY INC., priority 1989, dated 1990) come the findings set out here.

SMILES strings stand for the structures.

The data set concerns Hartley albino guinea pigs. As to the kind of experiment: Guinea pig maximization test (Magnusson and Kligman method), delayed contact hypersensitivity. Format: in vivo. The settings on record: primary challenge. The method, then:
The potential of EAP-1 to produce delayed contact hypersensitivity in guinea pigs was evaluated by the Magnusson and Kligman Maximization Test Method.
On day zero, twenty Hartley albino guinea pigs plus ten positive control animals, and ten vehicle control animals each received six intradermal injections, i.e. duplicate injections (0.1 ml;injection) for each of the three test groups: test material (undiluted), formaldehyde (5.0% w/v in distilled water) and acetone, respectively. Each animal also received two intradermal injections of 50% v/v Freund's Complete Adjuvant (FCA) in distilled water and two injections of the respective test or control materials in the FCA/distilled water emulsion.
On day 6, these same groups of animals were exposed topically to a preparation of their respective test (50% w/v in acetone) or control material under ELASTOPLAST@ (a product of Beiersdorf, Inc.) bandage wrappings for approximately 48 hours.
On day 19, all animals were topically challenged at a naive (not previously exposed) skin site using a preparation of their respective test or control material under ELASTOPLAST@ bandage wrappings for approximately 24 hours. Naive control animals were patched identically to and concurrently with the test and positive.
On the day after removal, the sites were depilated. Later that day and again on the next day, the sites were graded for erythema (redness). […]

As for `C=O` [positive control, formaldehyde], the sensitization classification entry (positive control group) is “extreme sensitization”. For the same compound, the “incidence of grade 1 responses or greater” value (positive control group (10/10)) is reported as 100%.
